# Columns and labels:
# vein of the inner elbow = assay: Vein diameter from visible light images after swabbing, arm stationary (Examples 3 and 4); conditions: for AVERAGE % CHANGE IN VEIN DIAMETER: nine minutes following application; for vasodilation of the vein of the elbow (in words): summary of Table 4, salts at 10 mM; for Diameter Post-Application / Diameter Pre-Application / Percent change (vein diameter): Example 3; for Diameter Post-Application: endpoint image nine minutes following application, concentration as in test agent label; for Diameter Pre-Application: initial image prior to application of test agent (baseline); for Percent change (vein diameter): nine minutes following application versus pre-application;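 for all read-outs here: agents applied to skin over the inner elbow vein with the arm resting still on a table, diameter read in pixels from images taken before and nine minutes after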
# Experimental: Studies in Example 2 were performed except that the vein of the inner elbow, the site most frequently used for phlebotomy, was evaluated and vein diameter was measured from enlarged, sequential, visible light images. […] Instead the response to swabbing was recorded with the arm in a stationary position resting on a table top.
# The initial image was taken prior to application of each test agent. The endpoint image was taken nine minutes following application of the test agent. The vein diameters were measured in pixels.
# The procedure of Example 3 was repeated utilizing swabs impregnated with various salt compounds on one to three adult male and female subjects. Each test compound was applied to the skin overlying the vein of the inner elbow. The initial image was taken prior to application of each test agent. The endpoint image was taken nine minutes following application of the test agent. The vein diameters were measured in pixels.
# [1] = tested on: veins visible on the dorsum of the hand; assay: Peripheral venous filling time after topical application (Example 1); type: in vivo, human; conditions: for VENOUS FILL TIME: average of two subjects; for effect on venous fill time (in words): topical application, dorsum of hand, summary of Table 1
# Experimental: Several studies were conducted to determine the effect of topically applied compounds on peripheral venous filling. The same two healthy adult male volunteer subjects were used for each of the studies.
# In each study, a baseline value for peripheral venous filling time was determined as follows. Each subject held their outstretched arm vertically with hand directed upwards toward the ceiling for a period of time sufficient to cause the veins visible on the dorsum of the hand to attain their minimum dilation. Then, the subject lowered their hand and held their outstretched arm vertically with hand directed downwards toward the floor for a period of time sufficient to cause the veins visible on the dorsum of the hand to attain their maximum dilation. The time for the veins to attain maximum dilation following the lowering of the hands was measured.
# This procedure was repeated following application of a test compound to the site of visible veins on the dorsum of the hands in order to determine the effect of the test compound on venous filling. Longer venous filling times are indicative of vasodilation and increased pooling of blood within the vein.
# dorsal hand veins = assay: Infrared thermal imaging of dorsal hand veins after swabbing and hand elevation (Example 2); type: in vivo, human
# Experimental: Infrared (IR) thermal imaging utilizing a standardized, calibrated infrared (950 nm wavelength) camera acquiring electronic images and providing color coded maps for testing effects of test vasodilator chemical compounds on dorsal hand veins was performed in three male and two female healthy volunteers. Infrared was utilized to determine the degree to which the test chemical compounds cause vasodilation because infrared provides a measure of thermal gradient and diameter that correlates well with visual indications of increased venous size and with successful first attempt venipuncture. Test agents were applied by swabbing the target area for about 30 seconds. A baseline control without application of any swab or by swabbing with a placebo swab containing no liquid was performed at the start of each test as a basis to compare imaging of the vein dilator dependent filling. IR images were obtained using a standardized, calibrated infrared (950 nm wavelength) camera that acquired an electronic image and provided a color coded thermal map. […] The swab was rubbed onto the dorsal surface of a hand of each subject and then the hand was elevated for 2 minutes after which the hand was returned to a horizontal position. IR imaging was performed on the dorsum of the hand before elevation and at intervals following the return to the horizontal position.
# [2] = Example 4, 10 mM, one to three subjects
# [3] = Study 1, baseline (none) 54 sec, EtOH 70%, MgCl2 100 mM
# [4] = Study 3, baseline (none) 51 sec, EtOH 70%, MgSO4 10 mM
# [5] = Study 4, baseline (none) 39 sec, MgSO4 10 mM
compound,measurement,setting,value
"CC(=O)[O-].CC(=O)[O-].[Ca+2] [10 mM Ca acetate, Ca acetate]",AVERAGE % CHANGE IN VEIN DIAMETER,vein of the inner elbow; [2],−0.5%
same,vasodilation of the vein of the elbow (in words),vein of the inner elbow; Example 4,did not show vasodilation
"[Ca+2].[Cl-].[Cl-] [10 mM CaCl2, CaCl2]",AVERAGE % CHANGE IN VEIN DIAMETER,vein of the inner elbow; [2],12.0%
"O=S(=O)([O-])[O-].[Ca+2] [10 mM CaSO4, CaSO4]",AVERAGE % CHANGE IN VEIN DIAMETER,vein of the inner elbow; [2],17.7%
"[Cl][Cu][Cl] [10 mM CuCl2, CuCl2]",AVERAGE % CHANGE IN VEIN DIAMETER,vein of the inner elbow; [2],10.5%
"O=S(=O)([O-])[O-].[Cu+2] [10 mM CuSO4, CuSO4]",AVERAGE % CHANGE IN VEIN DIAMETER,vein of the inner elbow; [2],20.95%
"CC(=O)[O-].CC(=O)[O-].[Mg+2] [10 mM Mg acetate, Mg acetate]",AVERAGE % CHANGE IN VEIN DIAMETER,vein of the inner elbow; [2],27.9%
"O=C([O-])CC(O)(CC(=O)[O-])C(=O)[O-].O=C([O-])CC(O)(CC(=O)[O-])C(=O)[O-].[Mg+2].[Mg+2].[Mg+2] [10 mM Mg citrate, Mg citrate]",AVERAGE % CHANGE IN VEIN DIAMETER,vein of the inner elbow; [2],4.2%
"CC(=O)[O-].CC(=O)[O-].[Mn+2] [10 mM Mn acetate, Mn acetate]",AVERAGE % CHANGE IN VEIN DIAMETER,vein of the inner elbow; [2],0.0%
"[Cl][Mn][Cl] [10 mM MnCl2, MnCl2]",AVERAGE % CHANGE IN VEIN DIAMETER,vein of the inner elbow; [2],2.7%
same,vasodilation of the vein of the elbow (in words),vein of the inner elbow; Example 4,mild vasodilation
"O=S(=O)([O-])[O-].[Mn+2] [10 mM MnSO4, MnSO4]",AVERAGE % CHANGE IN VEIN DIAMETER,vein of the inner elbow; [2],0.0%
"CC(=O)[O-].CC(=O)[O-].[Sr+2] [10 mM Sr acetate, Sr acetate]",AVERAGE % CHANGE IN VEIN DIAMETER,vein of the inner elbow; [2],7.35%
"[Cl-].[Cl-].[Sr+2] [10 mM SrCl2, SrCl2]",AVERAGE % CHANGE IN VEIN DIAMETER,vein of the inner elbow; [2],−6.0%
same,vasodilation of the vein of the elbow (in words),vein of the inner elbow; Example 4,did not show vasodilation
"O=S(=O)([O-])[O-].[Sr+2] [10 mM SrSO4, SrSO4]",AVERAGE % CHANGE IN VEIN DIAMETER,vein of the inner elbow; [2],16.95%
"O=S(=O)([O-])[O-].[Zn+2] [10 mM ZnSO4, ZnSO4]",AVERAGE % CHANGE IN VEIN DIAMETER,vein of the inner elbow; [2],−4.4%
same,vasodilation of the vein of the elbow (in words),vein of the inner elbow; Example 4,failed to demonstrate vasodilation
"CCO [EtOH, ethyl alcohol]",VENOUS FILL TIME,[1]; [3],59 s
same,% CHANGE FROM BASELINE (venous fill time),[1]; [3],9%
same,VENOUS FILL TIME,[1]; [4],38 s
same,% CHANGE FROM BASELINE (venous fill time),[1]; [4],(−25) %
same,decrease in fill time,"[1]; study 3, EtOH 70%, versus baseline",25%
same,effect on venous fill time (in words),[1],no effect on venous fill time
"CC(C)O [Isopropyl alcohol, isopropyl alcohol, reference compound]",VENOUS FILL TIME,[1]; [5],69 s
same,% CHANGE FROM BASELINE (venous fill time),[1]; [5],76%
same,effect on venous fill time (in words),[1],increased venous fill time
same,"effect on dorsal hand veins on IR examination (in words), early","dorsal hand veins; Example 2a, compared to dry swab control, 30 seconds following return to horizontal, 70% isopropyl alcohol",initial vasoconstriction with reduced filling of the veins on the dorsum of the hand
same,Diameter Post-Application,vein of the inner elbow,55.04 pixels
same,Diameter Pre-Application,vein of the inner elbow,57.78 pixels
same,Percent change (vein diameter),vein of the inner elbow,(−4.74) Percent
same,AVERAGE % CHANGE IN VEIN DIAMETER,"vein of the inner elbow; Example 4, 70%",−13.2%
same,vasodilation of the vein of the elbow (in words),vein of the inner elbow; Example 4,constriction of the underlying vein
[Cl-].[Cl-].[Mg+2] [MgCl2],VENOUS FILL TIME,[1]; [3],158 s
same,% CHANGE FROM BASELINE (venous fill time),[1]; [3],190%
same,effect on venous fill time (in words),[1],substantial increases in venous filling time compared to baseline control
same,AVERAGE % CHANGE IN VEIN DIAMETER,vein of the inner elbow; [2],6.5%
"O=S(=O)([O-])[O-].[Mg+2] [MgSO4, magnesium sulfate]",effect on venous fill time (in words),[1],substantial increases in venous filling time compared to baseline control
same,Increase in Venous Diameter Following Hand Elevation,"dorsal hand veins; MgSO4 10 mM in water, benzalkonium chloride 1%, maximal dilation after return to horizontal, control (dry swab) <10%",30%
same,Diameter Post-Application,vein of the inner elbow,73.06 pixels
same,Diameter Pre-Application,vein of the inner elbow,65.86 pixels
same,Percent change (vein diameter),vein of the inner elbow,10.93%
same,AVERAGE % CHANGE IN VEIN DIAMETER,vein of the inner elbow; [2],30.0%
same,AVERAGE % CHANGE IN VEIN DIAMETER,"vein of the inner elbow; Example 4, 100 mM",25.2%
same,AVERAGE % CHANGE IN VEIN DIAMETER,"vein of the inner elbow; Example 4, 1 M",22.9%
same,optimal concentration,"vein of the inner elbow; Example 4, from 10 mM, 100 mM and 1 M tested",10 mM
same,vasodilation of the vein of the elbow (in words),vein of the inner elbow; Example 4,powerful vasodilator
"benzalkonium chloride [1% benzalkonium chloride, reference compound]",Diameter Post-Application,vein of the inner elbow,37.80 pixels
same,Diameter Pre-Application,vein of the inner elbow,34.41 pixels
same,Percent change (vein diameter),vein of the inner elbow,9.85%

# From patent US20100234766A1, “Topical administration of a salt compound to facilitate venipuncture” (priority 2006, published 2010)
